# According to patent US9700603B2, “Use of antidotes to coagulation inhibitors indicated in the prevention or treatment of thromboembolic pathologies” (LABORATOIRE FRANCAIS DU FRACTIONNEMENT ET DES …, priority 2013, dated 2017):
# Legend:
# Assay type in all cases: biochemical
# [1] = test system: thrombin generation in normal plasma; assay: Thrombin generation (TGT) induced by tissue factor (0.5 pM)
# Experimental: The effect of an overdose of FXa in normal plasma was assessed by measuring thrombin generation (TGT) following induction by tissue factor (0.5 pM) (FIG. 5, Table I). Doses of 0.03 μg/ml to 0.5 μg/ml of FXa were compared. The quantity of thrombin generated depends on the dose of FXa added.
# A similar experiment was repeated in the presence of a therapeutic dose of 0.35 μg/ml of Rivaroxaban (FIG. 6, Table I). […] On the other hand, a correction of thrombin generation is obtained starting from 0.06 μg/ml (▪) up to a dose of 0.25 μg/ml (▴).
# [2] = test system: thrombin generation in normal plasma pool; assay: Thrombin generation test (TGT Fluoroskan), extrinsic pathway, TF 1 pM / PL 4 μM
# Experimental: The stock solution of rivaroxaban at 436 μg/mL is diluted in 5% DMSO in order to obtain intermediate concentrations which, added to the NPP (Normal Pool Plasma), give final concentrations of rivaroxaban in μg per mL of plasma.
# (§1) The thrombin generation test consists of activating coagulation ex vivo either using a mixture of tissue factor and phospholipids, or using cephalin and then measuring the concentration of thrombin generated over time.
# (§2) The reaction is started by the addition of 20 μL of Fluca-kit (substrate+CaCl2) which constitutes the start of the measurement of the appearance of thrombin. The appearance of fluorescence is measured on a fluorometer of the Fluoroskan Ascent type (ThermoLabsystems) at an excitation wavelength of 390 nm and emission wavelength of 460 nm. The thrombinograms (curves representing the intensity of fluorescence as a function of time) are then analyzed using the Thrombinoscope™ software which converts the fluorescence value to nM of thrombin by comparative calculation.
# normal plasma pool [3] = assay: aPTT with PTT-A; conditions: rivaroxaban 0.35 μg/mL in PNP, no FXa
# normal plasma pool [4] = assay: Prothrombin time (PT) with RecombiPlastin
# [5] = test system: thrombin generation in normal plasma pool; assay: Thrombin generation test (TGT Fluoroskan), extrinsic pathway, TF 5 pM / PL 4 μM; conditions: rivaroxaban 0.35 μg/mL in PNP, no FXa
# Experimental: as §1, §2
# The reagents, the automaton and the experimental protocol are identical to those described in Example 1. […]
# [6] = test system: thrombin generation in normal plasma pool; assay: Thrombin generation test (CAT), intrinsic pathway, cephalin alone
# Experimental: as §1, §2
# The reagents, the automated equipment and the experimental protocol are identical to those described in Example 1.
# [7] = test system: thrombin generation in normal plasma; assay: Thrombin generation (TGT) induced by cephalin
# Experimental: A series of similar experiments is carried out by inducing the initiation of coagulation by cephalin. The series of preliminary experiments mimics the extrinsic activation of coagulation. This second series of experiments mimics the intrinsic activation of coagulation. The presence of FXa in an increasing quantity in normal plasma (●) […] the speed of appearance of thrombin without changing the total quantity of thrombin generated (FIG. 7, Table II). The speed of appearance of the thrombin is correlated with the dose of FXa added. Shorter times to peak are obtained in the presence of FXa.
# The effect of FXa following the induction of thrombin generation by cephalin is then measured in the presence of Rivaroxaban at 0.35 μg/ml (FIG. 8, Table II). […] The presence of FXa in an increasing concentration makes it possible to increase the quantity of thrombin generated in a dose-dependent manner, as well as to reduce the time to peak. A maximum quantity of thrombin is obtained in the case of a concentration comprised between 0.125 and 0.25 μg/ml.
# [8] = Unicalibrator + 0.35 μg/ml Rivaroxaban, no hFXa
# [9] = rivaroxaban 0.5 μg/mL in PNP, no FX (Table 2)
# [10] = rivaroxaban 0.5 μg/ml in PNP, no FX (Table 1)
# [11] = rivaroxaban 0.35 μg/ml in PNP, no FX
smiles,measurement,setting,value
O=C(NC[C@H]1CN(c2ccc(N3CCOCC3=O)cc2)C(=O)O1)c1ccc(Cl)s1 [rivaroxaban],reduction of thrombin generation versus untreated plasma,[1]; 0.35 μg/ml of Rivaroxaban,approximately 75%
same,Lag time,[1]; [8],10.17 min
same,Peak,[1]; [8],10.69 nM
same,ttPeak,[1]; [8],20.5 min
same,effect on ability to generate thrombin from normal plasma,"[2]; 0.5 μg/mL of Rivaroxaban, activation by tissue factor and phospholipids",completely destroys the ability to generate thrombin
same,LT (lag time),[2]; [9],30.59 min
same,Peak,[2]; [9],6.83 nM
same,TTP (time to peak),[2]; [9],58.81 min
same,mVRI (mean velocity rate index),[2]; [9],0.24 nM/min
same,LT (lag time),[2]; [10],25.5 min
same,Peak,[2]; [10],7.42 nM
same,TTP (time to peak),[2]; [10],49.33 min
same,mVRI (mean velocity rate index),[2]; [10],0.31 nM/min
same,aPTT with PTT-A,normal plasma pool [3],50.5 s
same,PT with RecombiPlastin 2G (ISI: 1.0),"normal plasma pool [4]; rivaroxaban 0.35 μg/mL in PNP, no FXa",26 s
same,PT (RecombiPlastin ISI: 1.0),"normal plasma pool [4]; rivaroxaban 0.5 μg/ml in PNP, no FX",32.5 s
same,ETP (endogenous thrombin potential),[5],772 nM·min
same,LT (lag time),[5],11.11 min
same,Peak,[5],31.32 nM
same,ST (start time),[5],67 min
same,TTP (time to peak),[5],25.33 min
same,mVRI (mean velocity rate index),[5],2.20 nM/min
same,effect on ability to generate thrombin from normal plasma,"[6]; 0.35 μg/mL of Rivaroxaban, activation with Cephalin",completely destroys the ability to generate thrombin
same,ETP (endogenous thrombin potential),[6]; [11],230.5 nM·min
same,LT (lag time),[6]; [11],48.17 min
same,Peak,[6]; [11],8.49 nM
same,ST (start time),[6]; [11],116 min
same,TTP (time to peak),[6]; [11],54 min
same,mVRI (mean velocity rate index),[6]; [11],1.46 nM/min
same,effect on thrombin generation induced by cephalin,[7]; Rivaroxaban at 0.35 μg/ml,completely inhibits thrombin generation
same,ETP,[7]; [8],0 nM
same,Peak,[7]; [8],0 nM
same,ttPeak,[7]; [8],0 min
